Assays:
[1] = target: T1, hM3D receptor (Homo sapiens, UniProt P20309, A239G/Y149C); assay: 18F-FDG PET glucose metabolism, C22b 1 μg/kg versus solvent, one-way repeated measures ANOVA, hM3D in left amygdala; type: in vivo, monkey; details: Macaca mulatta
T1 construct: expressed in transfected cells; host or cells: neurons of the left amygdala of live Macaca mulatta, transduced with AAV2-CMV-hM3D
Method: Then, the AAV vector was injected into Macaca mulatta different from in Example 3 (male, 3 kg) in the same manner as in Example 3. On the day 70 days after, a C22b compound solution (1 μg/kg) or a solvent was intravenously administered under isoflurane anesthesia, 1 minute later, ^18F-FDG (224 to 286 MBq) was intravenously administered, and then subjected to PET scanning for 120 minutes. The process was performed four times for each intravenous dose. Note that the solvent was the same as a solvent used for the C22b compound solution (solvent: 0.1 mL/kg of saline containing 1% dimethyl sulfoxide and 5% Tween 20 (surfactant)).
A glucose metabolism image (whole brain activity) when an average of the whole brain was determined as 100% was created from PET data integrated from 30 minutes to 60 minutes after the administration. Then, a site in which the C22b administration caused a statistically significant change compared to a solvent administration was analyzed by one-way repeated measures ANOVA using MATLAB (R2016a) and SPM12.

[2] = target: T1, hM3D receptor; assay: 18F-FDG PET glucose metabolism image after C22b 0.1 mg/kg, hM3D expressed in left amygdala; type: in vivo; details: Macaca mulatta
Method: On the day 65 days after the AAV vector was injected, a C22b compound (0.1 mg/kg) was intravenously administered to the same Macaca mulatta as in Example 3 under isoflurane anesthesia, 1 minute later, ^18F-FDG (263 MBq) was intravenously administered, and then subjected to PET scanning for 90 minutes. Note that, here, the C22b compound was HY-42110 (manufactured by MedChem Express) which was the compound represented by Formula (III) in which R^1 was methyl, X was imino, and R^2 was hydrogen.
A glucose metabolism image (whole Brain Activity) when an average in the whole brain was determined as 100% was created from PET data integrated for 90 minutes.

[3] = test system: hM4D receptor; assay: PET imaging with radiolabeled tracer, ligand binding potential image (cerebellum as reference region), hM4D expressed in right putamen; type: in vivo; details: Japanese macaque, PET 90 minutes, cerebellum BP determined as 1, non-injection region
Method: (§1) The head of Japanese macaque (male/5.5 kg) was fixed to a stereotaxic instrument under general anesthesia, and 6 μL of an adeno-associated virus (AAV) vector (AAV2-CMV-hM4D) for expressing an hM4D receptor in a nerve cell-specific manner was injected for 12 minutes by a Hamilton syringe (10 μL) into a middle portion of the right putamen read from a magnetic resonance imaging (MRI) image taken in advance. Note that, here, the CMV was a promotor for gene expression.
(§2) On the day 427 days after the injection, a compound represented by Formula (II) (hereinafter may be referred to as [^11C]C22b) (364 MBq) serving as a radiolabeled tracer was intravenously administered under isoflurane anesthesia and subjected to PET scanning for 90 minutes.
(§3) An image of a ligand binding potential was created from PET data integrated for 90 minutes using the cerebellum as a reference region (the binding potential (BP) in the cerebellum was determined as 1).

[4] = target: T2, hM4D receptor (Homo sapiens, UniProt P08173, A203G/Y113C); details: Japanese macaque; for Selectivity (expressed region/unexpressed region): hM4D, ratio of tracer amount per volume; for hM4D-expressed region amount of uptake of tracer: right putamen, PET 30 to 90 minutes after administration
Method: (§4) The [^11C]C22b (Example 2) and [^11C]clozapine ([^11C]CLZ, Comparative Example 1) were compared for a property of visualizing hM4D expressed in the Japanese macaque used in Example 1. The hM4D receptor was expressed in the same manner as in Example 1.
(§5) An average image integrated from 30 to 90 minutes after administration of a tracer was created based on a standardized uptake value (SUV) and an amount of uptake in the brain was calculated from PET imaging taken from 30 to 90 minutes after the administration in the frontal plane including the right putamen in which the hM4D was expressed.

[5] = test system: hM4D receptor; details: Japanese macaque, PET 30 to 90 minutes after administration; for Whole brain amount of uptake of tracer: SUV; for Control region (hM4D-unexpressed region) amount of uptake of tracer: left putamen
Method: as §4, §5

[6] = target: T2, hM4D receptor; assay: PET imaging with radiolabeled tracer, ligand binding potential image (cerebellum as reference region), hM4D expressed in right putamen; type: in vivo; design: expressed in transfected cells; host or cells: neurons of the right putamen of a live Japanese macaque, transduced with AAV2-CMV-hM4D; details: Japanese macaque
Method: as §1, §2, §3

[7] = test system: hM3D receptor; assay: PET imaging with radiolabeled tracer, ligand binding potential image (cerebellum as reference region), hM3D expressed in left amygdala; type: in vivo; details: Macaca mulatta, PET 90 minutes, cerebellum BP determined as 1, non-injection region
Method: as §1, with “Macaca mulatta (male/4.2” for “Japanese macaque (male/5.5”, “3” for “and 6”, “(AAV2-CMV-hM3D)” for “(AAV2-CMV-hM4D)”, “hM3D” for “hM4D”, “left amygdala” for “right putamen”
(§6) On the day 57 days after the injection, the [^11C]C22b (277 MBq) serving as a radiolabeled tracer was intravenously administered under isoflurane anesthesia and subjected to PET scanning for 90 minutes.
(§7) An image of a ligand binding potential was created from PET data integrated for 90 minutes using the cerebellum as a reference region (the binding potential (BP) of the cerebellum was determined as 1). A portion shown by an arrow in FIG. 6 represents the left amygdala into which the AAV vector has been injected.

[8] = target: T1, hM3D receptor; assay: as above; type: in vivo; details: Macaca mulatta
Method: as §1, with “Macaca mulatta (male/4.2” for “Japanese macaque (male/5.5”, “3” for “and 6”, “(AAV2-CMV-hM3D)” for “(AAV2-CMV-hM4D)”, “hM3D” for “hM4D”, “left amygdala” for “right putamen”
as §6, §7

[9] = test system: hM3D receptor; type: in vivo; details: Macaca mulatta
Method: as §1, with “Macaca mulatta (male/4.2” for “Japanese macaque (male/5.5”, “3” for “and 6”, “(AAV2-CMV-hM3D)” for “(AAV2-CMV-hM4D)”, “hM3D” for “hM4D”, “left amygdala” for “right putamen”
as §6

[10] = target: T1, hM3D receptor; type: in vivo; details: Macaca mulatta
Method: as §1, with “Macaca mulatta (male/4.2” for “Japanese macaque (male/5.5”, “3” for “and 6”, “(AAV2-CMV-hM3D)” for “(AAV2-CMV-hM4D)”, “hM3D” for “hM4D”, “left amygdala” for “right putamen”
as §6

[11] = target: T3, hM4D (Homo sapiens, UniProt P08173, A203G/Y113C); assay: PET imaging of axon terminal (substantia nigra pars reticulata), projection target of hM4D-expressing nerve cell in right putamen; type: in vivo; details: Japanese macaque, PET average image 30 to 90 minutes after tracer
T3 construct: expressed in transfected cells; host or cells: neurons of the right putamen of a live Japanese macaque, transduced with AAV2-CMV-hM4D
T3 sequence (P08173 1-479 Y113C/A203G): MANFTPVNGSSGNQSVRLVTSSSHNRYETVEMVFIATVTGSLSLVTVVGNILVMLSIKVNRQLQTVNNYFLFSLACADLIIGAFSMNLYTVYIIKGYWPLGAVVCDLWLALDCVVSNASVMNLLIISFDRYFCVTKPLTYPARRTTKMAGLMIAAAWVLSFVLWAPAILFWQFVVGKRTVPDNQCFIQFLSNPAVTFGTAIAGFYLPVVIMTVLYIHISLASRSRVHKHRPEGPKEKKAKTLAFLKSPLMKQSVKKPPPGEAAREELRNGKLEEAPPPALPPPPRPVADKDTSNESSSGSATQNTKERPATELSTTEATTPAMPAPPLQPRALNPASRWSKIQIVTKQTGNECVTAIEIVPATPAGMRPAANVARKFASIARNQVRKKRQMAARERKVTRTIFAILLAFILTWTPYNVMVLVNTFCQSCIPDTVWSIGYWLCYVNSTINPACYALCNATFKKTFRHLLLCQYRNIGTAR
Method: (§8) Specifically, the [^11C]C22b was exogenously administered as a tracer in the same manner as in Example 1 and subjected to PET scanning for 90 minutes.
(§9) Specifically, the compound represented by […] ([^11C]C22b) was exogenously administered as a tracer and subjected to PET scanning for 90 minutes.

[12] = test system: hM4D; assay: as above; type: in vivo; details: Japanese macaque, PET average image 30 to 90 minutes after tracer
Method: as §8, §9

T1 sequence (P20309 whole entry Y149C/A239G, the tested form may be a part): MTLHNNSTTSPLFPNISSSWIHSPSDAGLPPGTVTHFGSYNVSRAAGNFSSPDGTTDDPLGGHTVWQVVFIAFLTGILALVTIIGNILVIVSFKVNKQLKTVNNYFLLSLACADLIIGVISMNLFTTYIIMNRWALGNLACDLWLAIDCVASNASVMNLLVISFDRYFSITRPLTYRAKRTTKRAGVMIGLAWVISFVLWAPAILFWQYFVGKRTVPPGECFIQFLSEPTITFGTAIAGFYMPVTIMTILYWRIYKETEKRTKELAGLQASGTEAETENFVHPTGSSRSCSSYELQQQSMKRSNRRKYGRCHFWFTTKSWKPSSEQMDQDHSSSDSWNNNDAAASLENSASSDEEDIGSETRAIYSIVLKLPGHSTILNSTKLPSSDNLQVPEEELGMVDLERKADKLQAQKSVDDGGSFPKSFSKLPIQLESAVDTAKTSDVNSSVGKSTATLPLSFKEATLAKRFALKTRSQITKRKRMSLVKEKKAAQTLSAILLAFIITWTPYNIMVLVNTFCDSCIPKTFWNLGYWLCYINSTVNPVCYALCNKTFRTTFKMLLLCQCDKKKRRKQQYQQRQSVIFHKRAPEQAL

SMILES | t-value for the AAV vector injected region (one-way repeated measures ANOVA) ([1]; C22b 1 μg/kg i.v. vs solvent, left amygdala) | glucose metabolism activity in left amygdala, C22b versus solvent administration ([1]; C22b 1 μg/kg i.v., 18F-FDG PET 30 to 60 minutes, uncorrected p<0.001) | glucose metabolism in left amygdala (AAV injected) relative to control region (right amygdala) ([2]; C22b 0.1 mg/kg i.v., 18F-FDG PET 90 minutes) | action at hM3D receptor ([2]; glucose metabolism activated in hM3D-expressing left amygdala) | binding potential in control region (left putamen) [3] | Selectivity (expressed region/unexpressed region) [4] | hM4D-expressed region amount of uptake of tracer [4] | Whole brain amount of uptake of tracer [5] | Control region (hM4D-unexpressed region) amount of uptake of tracer [5] | binding potential in the right putamen into which the AAV vector had been injected ([6]; i.v. tracer 364 MBq, PET 90 minutes, cerebellum BP determined as 1, hM4D-expressed region) | binding potential of injected region relative to non-injection region ([6]; right putamen (hM4D) vs left putamen) | binding potential in control region (right amygdala) [7] | binding potential in the left amygdala into which the AAV vector had been injected ([8]; i.v. tracer 277 MBq, PET 90 minutes, cerebellum BP determined as 1, hM3D-expressed region) | binding potential of injected region relative to non-injection region ([8]; left amygdala (hM3D) vs right amygdala) | Whole brain amount of uptake of tracer [9] | Control region (hM3D-unexpressed region) amount of uptake of tracer ([9]; opposite region) | Selectivity (expressed region/unexpressed region) ([10]; hM3D, ratio of tracer amount per volume) | hM3D-expressed region amount of uptake of tracer ([10]; left amygdala) | visualisation of hM4D in the axon terminal (substantia nigra pars reticulata) [11] | binding to other nerve cells or brain tissues (off-target) [12]
CN1CCN(C2=Nc3ccccc3Nc3ccccc32)CC1 [C22b] | > 5.2 | significantly high | 1.88 times | acted as an agonist | – | – | – | – | – | – | – | – | – | – | – | – | – | – | – | –
[11CH3]N1CCC(C2=Nc3ccccc3Nc3ccccc32)CC1 [[^11C]C22b] | – | – | – | – | 0.28 | 2.31 | 6.32 g/cc | 2.47 g/cc | 2.74 g/cc | 3.07 | 11 times | 0.31 | 1.05 | 3.4 times | 2.42 g/cc | 2.60 g/cc | 1.45 | 3.77 g/cc | hM4D was confirmed to be expressed in the axon terminal | –
CN1CCN(C2=Nc3cc(Cl)ccc3Nc3ccccc32)CC1 [[^11C]clozapine, [^11C]8-chloro-11-(4-methylpiperazine-1-yl)-5H-dibenzo[b,e] [1,4]diazepine, reference compound] | – | – | – | – | – | 1.25 | 5.73 g/cc | 3.24 g/cc | 4.57 g/cc | – | – | – | – | – | – | – | – | – | hM4D was confirmed to be expressed in the axon terminal | also allowed to bind to nerve cells other than the nerve cell of interest or brain tissues to some extent

Source: patent US20250064992A1, “IMAGING METHOD FOR DESIGNER RECEPTOR, ANTAGONIST OR AGONIST, PHARMACEUTICAL, AND COMPANION DIAGNOSTIC AGENT” (priority 2018, published 2025)
